Assay results as given in PMC10324058 (ACS Omega, 2023).

Molecular target: α-glucosidase enzyme (Saccharomyces cerevisiae, UniProt P53341)
Assay: Kinetic study against α-glucosidase
Format: biochemical, S. cerevisiae

Sequence of α-glucosidase enzyme (P53341 whole entry): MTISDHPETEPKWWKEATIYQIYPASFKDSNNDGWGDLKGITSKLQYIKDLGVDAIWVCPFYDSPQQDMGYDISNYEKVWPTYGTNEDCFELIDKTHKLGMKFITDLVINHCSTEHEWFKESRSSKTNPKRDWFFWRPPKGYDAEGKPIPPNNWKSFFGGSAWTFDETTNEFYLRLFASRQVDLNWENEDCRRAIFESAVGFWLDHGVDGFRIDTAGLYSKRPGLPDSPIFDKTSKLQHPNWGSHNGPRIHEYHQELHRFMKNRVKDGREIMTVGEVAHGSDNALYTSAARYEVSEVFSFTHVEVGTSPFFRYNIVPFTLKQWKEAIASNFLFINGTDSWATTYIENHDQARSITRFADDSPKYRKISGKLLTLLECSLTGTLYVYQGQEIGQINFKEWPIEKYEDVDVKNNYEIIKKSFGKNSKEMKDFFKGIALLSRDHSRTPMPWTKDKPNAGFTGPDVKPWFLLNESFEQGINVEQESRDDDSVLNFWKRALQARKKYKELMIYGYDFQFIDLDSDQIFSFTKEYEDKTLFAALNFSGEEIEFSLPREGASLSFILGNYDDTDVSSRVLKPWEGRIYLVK

N#CC1=C(N)Oc2c(c(=O)[nH]c3ccccc23)C1c1cccc(OCc2cn(Cc3ccccc3)nn2)c1 (centres unmarked) [8k, 2-Amino-4-(3-((1-benzyl-1H-1,2,3-triazol-4-yl)methoxy)phenyl)-5-oxo-5,6-dihydro-4H-pyrano[3,2-c]quinoline-3-carbonitrile]
Ki: 1300 nM | inhibition mode (Lineweaver–Burk plot: Km increased, Vmax unchanged): competitive inhibitor
